27 molecules from patent publication US20050197350A1, “Novel quinoline, tetrahydroquinazoline, and pyrimidine derivatives and methods of treatment related to the use thereof” (TAISHO PHARMACEUTICAL CO., LTD., priority 2003, published 2005) can be followed below.

This assay has as its system MCH receptors. Put plainly: MCH receptor activity class (method not given). The settings on record: class by percent of control at 10^-7 M or IC50.

Structures are written as SMILES.

In the case of `CCCSc1ncccc1C(=O)N[C@H]1CC[C@@H](Nc2nccc(N(C)C)n2)CC1` [compound 302], the class was 3 (Class 3 The value of percent of control at 10^−7 M was more than 60% or the value of IC50 was more than 200 nM.). For the molecule `CN(C)c1ccnc(N[C@H]2CC[C@@H](NC(=O)c3cc(C(C)(C)C)nn3Cc3ccccc3)CC2)n1` [compound 303], the class is given as 2 (Class 2: The value of percent of control at 10^−7 M was from 40% to 60% or the value of IC′50 was from 50 nM to 200 nM.).

Consider `CN(C)c1ccnc(N[C@H]2CC[C@@H](NC(=O)c3cc(C(C)(C)C)nn3C)CC2)n1` [compound 304], for which the class is reported as 3 (Class 3 The value of percent of control at 10^−7 M was more than 60% or the value of IC50 was more than 200 nM.). In the case of `C/C(=C\c1ccccc1)C(=O)N[C@H]1CC[C@@H](Nc2nccc(N(C)C)n2)CC1` [compound 305], the class is given as 3 (Class 3 The value of percent of control at 10^−7 M was more than 60% or the value of IC50 was more than 200 nM.).

Take `CN(C)c1ccnc(N[C@H]2CC[C@@H](NC(=O)c3cncc(Br)c3)CC2)n1` [compound 306]: the class was 3 (Class 3 The value of percent of control at 10^−7 M was more than 60% or the value of IC50 was more than 200 nM.). Then `CN(C)c1ccnc(N[C@H]2CC[C@@H](NC(=O)Cc3cccc4ccccc34)CC2)n1` [compound 307, N-(cis-4-{[4-(dimethylamino)pyrimidin-2-yl]amino}cyclohexyl)-2-(1-naphthyl)acetamide], with 2 (Class 2: The value of percent of control at 10^−7 M was from 40% to 60% or the value of IC′50 was from 50 nM to 200 nM.); and `Cc1cc(C(=O)N[C@H]2CC[C@@H](Nc3nccc(N(C)C)n3)CC2)nn1C(C)(C)C` [compound 308], with 3 (Class 3 The value of percent of control at 10^−7 M was more than 60% or the value of IC50 was more than 200 nM.). Next, `CN(C)c1ccnc(N[C@H]2CC[C@@H](NC(=O)c3csc4ccccc34)CC2)n1` [compound 309]: 3 (Class 3 The value of percent of control at 10^−7 M was more than 60% or the value of IC50 was more than 200 nM.); `CN(C)c1ccnc(N[C@H]2CC[C@@H](NC(=O)c3ccccc3)CC2)n1` [compound 311, N-(cis-4-{[4-(dimethylamino)pyrimidin-2-yl]amino}cyclohexyl)benzamide]: 3 (Class 3 The value of percent of control at 10^−7 M was more than 60% or the value of IC50 was more than 200 nM.); `CN(C)c1ccnc(N[C@H]2CC[C@@H](NC(=O)c3cc4ccccc4s3)CC2)n1` [compound 312]: 3 (Class 3 The value of percent of control at 10^−7 M was more than 60% or the value of IC50 was more than 200 nM.). Next, `CN(C)c1ccnc(N[C@H]2CC[C@@H](NC(=O)COCc3ccccc3)CC2)n1` [compound 313]: 3 (Class 3 The value of percent of control at 10^−7 M was more than 60% or the value of IC50 was more than 200 nM.); `CN(C)c1ccnc(N[C@H]2CC[C@@H](NC(=O)COc3ccc(Cl)cc3)CC2)n1` [compound 314]: 1 (Class 1: The value of percent of control at 10^−7 M was less than 40% or the value of IC50 was less than 50 nM.). For the molecule `CN(C)c1ccnc(N[C@H]2CC[C@@H](NC(=O)C3CCCCC3)CC2)n1` [compound 315], the class was 3 (Class 3 The value of percent of control at 10^−7 M was more than 60% or the value of IC50 was more than 200 nM.). Take `Cc1onc(-c2ccccc2Cl)c1C(=O)N[C@H]1CC[C@@H](Nc2nccc(N(C)C)n2)CC1` [compound 316]: the class is reported as 3 (Class 3 The value of percent of control at 10^−7 M was more than 60% or the value of IC50 was more than 200 nM.). As to `CN(C)c1ccnc(N[C@H]2CC[C@@H](NC(=O)C3(c4ccc(Cl)cc4)CCCC3)CC2)n1` [compound 317], the class is given as 2 (Class 2: The value of percent of control at 10^−7 M was from 40% to 60% or the value of IC′50 was from 50 nM to 200 nM.). Turning to `Cc1onc(-c2c(F)cccc2Cl)c1C(=O)N[C@H]1CC[C@@H](Nc2nccc(N(C)C)n2)CC1` [compound 318], the class was 2 (Class 2: The value of percent of control at 10^−7 M was from 40% to 60% or the value of IC′50 was from 50 nM to 200 nM.). Then `CC(C)S(=O)(=O)c1csc(C(=O)N[C@H]2CC[C@@H](Nc3nccc(N(C)C)n3)CC2)c1Cl` [compound 319], with 3 (Class 3 The value of percent of control at 10^−7 M was more than 60% or the value of IC50 was more than 200 nM.); and `CN(C)c1ccnc(N[C@H]2CC[C@@H](NC(=O)c3ccc([N+](=O)[O-])cc3Cl)CC2)n1` [compound 320], with 3 (Class 3 The value of percent of control at 10^−7 M was more than 60% or the value of IC50 was more than 200 nM.).

As to `Cc1cc(C(=O)N[C@H]2CC[C@@H](Nc3nccc(N(C)C)n3)CC2)n(C)n1` [compound 321], the class was 3 (Class 3 The value of percent of control at 10^−7 M was more than 60% or the value of IC50 was more than 200 nM.). Turning to `COc1ccc(C(=O)N[C@H]2CC[C@@H](Nc3nccc(N(C)C)n3)CC2)cc1OC` [compound 322], the class is listed as 3 (Class 3 The value of percent of control at 10^−7 M was more than 60% or the value of IC50 was more than 200 nM.). Take `CN(C)c1ccnc(N[C@H]2CC[C@@H](NC(=O)c3cccc(F)c3)CC2)n1` [compound 323]: the class is 3 (Class 3 The value of percent of control at 10^−7 M was more than 60% or the value of IC50 was more than 200 nM.). For `CN(C)c1ccnc(N[C@H]2CC[C@@H](NC(=O)c3ccc(F)c(C(F)(F)F)c3)CC2)n1` [compound 324, N-(cis-4-{[4-(dimethylamino)pyrimidin-2-yl]amino}cyclohexyl)-4-fluoro-3-(trifluoromethyl)benzamide], the class is listed as 1 (Class 1: The value of percent of control at 10^−7 M was less than 40% or the value of IC50 was less than 50 nM.). Regarding `Cc1nn(-c2ccccc2)nc1C(=O)N[C@H]1CC[C@@H](Nc2nccc(N(C)C)n2)CC1` [compound 325, N-(cis-4-{[4-(dimethylamino)pyrimidin-2-yl]amino}cyclohexyl)-5-methyl-2-phenyl-2H-1,2,3-triazole-4-carboxamide], the class was 1 (Class 1: The value of percent of control at 10^−7 M was less than 40% or the value of IC50 was less than 50 nM.). As for `COc1ccc(Oc2ccc([N+](=O)[O-])cc2C(=O)N[C@H]2CC[C@@H](Nc3nccc(N(C)C)n3)CC2)cc1` [compound 326, N-(cis-4-{[4-(dimethylamino)pyrimidin-2-yl]amino}cyclohexyl)-2-(4-methoxyphenoxy)-5-nitrobenzamide], the class is reported as 1 (Class 1: The value of percent of control at 10^−7 M was less than 40% or the value of IC50 was less than 50 nM.).

`CN(C)c1ccnc(N[C@H]2CC[C@@H](NC(=O)c3cccc4ccccc34)CC2)n1` [compound 327]: the class is given as 3 (Class 3 The value of percent of control at 10^−7 M was more than 60% or the value of IC50 was more than 200 nM.). Regarding `CN(C)c1ccnc(N[C@H]2CC[C@@H](NC(=O)c3ccc4ccccc4c3)CC2)n1` [compound 328], the class is listed as 3 (Class 3 The value of percent of control at 10^−7 M was more than 60% or the value of IC50 was more than 200 nM.).

As for `CN(C)c1ccnc(N[C@H]2CC[C@@H](NC(=O)c3ccc([N+](=O)[O-])o3)CC2)n1` [compound 329], the class is reported as 3 (Class 3 The value of percent of control at 10^−7 M was more than 60% or the value of IC50 was more than 200 nM.).
